Data from patent publication US20050261288A1, “Tetracyclic lactam derivatives and uses thereof” (priority 2004, published 2005).
pIC50: −log10 of the molar value.

Biological target: T1, PARP (Mus musculus, UniProt P11103)
T1 construct: endogenous in cells; host or cells: RAW mouse macrophages
Experiment: PARP activation in cultured murine macrophages, whole-cell macrophage assay (peroxynitrite-induced)
Assay type: cell-based
Conditions: for pIC50: PARP activation in cultured murine macrophages
Experimental: Without being bound by theory, Applicants believe that Tetracyclic Lactam Derivatives that inhibit PARP are useful for treating or preventing a Condition.
In a typical procedure, RAW mouse macrophages are cultured in DMEM medium with high glucose and supplemented with 10% fetal bovine serum. Cells are used at 80% confluence in 12-well plates. Cells are pretreated with various concentrations (100 nM-1 μM) of a Tetracyclic Lactam Derivative for 10 min. Peroxynitrite, a prototypical oxidant which induces DNA single strand breakage, is used to induce PARP activation. In a typical assay, peroxynitrite is diluted in phosphate buffered saline (PBS) (pH 11.0) and added to the cells in a bolus of 50 μL. Cells are then incubated for 20 minutes. Peroxynitrite is decomposed by incubation for 30 min at pH 7.0, and used as a control. After the 20 minute incubation period, the cells are spun, the medium is aspirated and the cells are resuspended in 0.5 mL assay buffer (56 mM HEPES pH 7:5, 28 mM KCl, 28 mM NaCl, 2 mM MgCl2, 0.01% w/v digitonin and 0.125 μM NAD^+ and 0.5 μCi/ml ^3H-NAD^+). Following incubation in assay buffer, (10 min at 37° C.), PARP activity can be measured as follows: 200 μL ice cold 50% w/v TCA is added and the samples are incubated for 4 h at 4° C. Samples are then spun (10 min @ 10,000 g) and the resulting pellets are washed twice with ice cold 5% w/v TCA and solubilized overnight in 250 μL 2% w/v SDS/0.1 N NaOH at 37° C. The contents of the tubes are added to 6.5 mL ScintiSafe Plus scintillation liquid (Fisher Scientific) and radioactivity is determined using a liquid scintillation counter (Wallac, Gaithersburg, Md.).
Examples of the inhibitory effects of illustrative Tetracyclic Lactam Derivatives in the whole-cell macrophage assay are illustrated in Tables 3 and 4 below.

T1 sequence (P11103 whole entry): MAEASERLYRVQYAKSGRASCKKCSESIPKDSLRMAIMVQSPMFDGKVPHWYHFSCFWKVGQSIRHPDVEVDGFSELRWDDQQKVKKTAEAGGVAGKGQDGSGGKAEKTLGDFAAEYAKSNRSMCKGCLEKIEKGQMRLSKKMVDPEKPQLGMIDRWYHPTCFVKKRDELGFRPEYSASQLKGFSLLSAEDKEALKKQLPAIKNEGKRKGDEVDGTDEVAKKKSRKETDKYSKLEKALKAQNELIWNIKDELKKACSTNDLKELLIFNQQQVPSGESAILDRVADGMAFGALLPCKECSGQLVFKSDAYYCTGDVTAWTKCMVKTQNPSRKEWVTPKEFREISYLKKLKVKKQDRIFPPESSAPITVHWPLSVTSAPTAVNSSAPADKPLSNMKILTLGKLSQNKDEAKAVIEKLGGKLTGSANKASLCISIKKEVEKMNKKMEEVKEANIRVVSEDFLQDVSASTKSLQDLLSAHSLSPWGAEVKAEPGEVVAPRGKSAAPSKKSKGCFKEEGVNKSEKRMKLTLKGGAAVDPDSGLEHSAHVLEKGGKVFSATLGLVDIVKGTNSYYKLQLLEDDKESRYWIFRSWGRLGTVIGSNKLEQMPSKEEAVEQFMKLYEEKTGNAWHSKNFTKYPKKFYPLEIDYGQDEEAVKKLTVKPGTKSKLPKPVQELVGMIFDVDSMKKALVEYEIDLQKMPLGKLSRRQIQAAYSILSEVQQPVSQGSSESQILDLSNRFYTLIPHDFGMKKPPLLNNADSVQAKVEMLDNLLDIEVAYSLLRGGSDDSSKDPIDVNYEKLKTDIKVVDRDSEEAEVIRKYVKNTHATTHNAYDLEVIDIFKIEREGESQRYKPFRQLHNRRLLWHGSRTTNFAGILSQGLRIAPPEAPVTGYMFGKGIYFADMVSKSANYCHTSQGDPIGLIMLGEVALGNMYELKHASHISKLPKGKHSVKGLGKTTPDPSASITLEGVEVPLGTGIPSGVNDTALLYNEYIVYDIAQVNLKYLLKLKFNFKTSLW

Row | SMILES | pIC50 | inhibition at 0.1 µM (0.1 μM, RAW mouse macrophages, peroxynitrite-induced PARP activation) | inhibition at 0.3 µM (0.3 μM, RAW mouse macrophages, peroxynitrite-induced PARP activation) | inhibition at 1 µM (1 μM, RAW mouse macrophages, peroxynitrite-induced PARP activation) | inhibition at 3 µM (3 μM, RAW mouse macrophages, peroxynitrite-induced PARP activation)
1 | CCCOC(=O)n1c2ccccc2c2[nH]c(=O)c3ccccc3c21 [Compound 107, N-PROPYL-5-OXO-5,6-DIHYDRO-INDOLO[3,2-C]ISOQUINOLINE-11-CARBOXYLATE] | 4.00 to 5.00 |  |  |  | 
2 | CCOC(=O)n1c2ccccc2c2[nH]c(=O)c3ccccc3c21 [Compound 63, ETHYL-5-OXO-5,6-DIRYDRO-INDOLO[3,2-C]ISOQUINOLINE-11-CARBOXYLATE] | 5.00 to 6.00 | 33% | 43% | 50% | 65%
3 | CCCCOC(=O)n1c2ccccc2c2[nH]c(=O)c3ccccc3c21 [Compound 109, N-BUTYL-5-OXO-5,6-DIHYDRO-INDOLO[3,2-C]ISOQUINOLINE-11-CARBOXYLATE] | 4.00 to 5.00 |  |  |  | 
4 | CC(C)OC(=O)n1c2ccccc2c2[nH]c(=O)c3ccccc3c21 [Compound 108, ISO-PROPYL-5-OXO-5,6-DIHYDRO-INDOLO[3,2-C]ISOQUINOLINE-11-CARBOXYLATE] | 4.00 to 5.00 |  |  |  | 
5 | COC(=O)n1c2ccccc2c2[nH]c(=O)c3ccccc3c21 [Compound 61, METHYL-5-OXO-5,6-DIHYDRO-INDOLO[3,2-C]ISOQUINOLINE-11-CARBOXYLATE] | 4.00 to 5.00 |  |  |  | 
